We go through six compounds from BindingDB's records for doi:10.1021/np100918z (National Cancer Institute-Frederick, 2011).

The assay deals with T1, Programmed cell death protein 4 (Homo sapiens, UniProt Q53EL6).
T1 sequence (Q53EL6 whole entry): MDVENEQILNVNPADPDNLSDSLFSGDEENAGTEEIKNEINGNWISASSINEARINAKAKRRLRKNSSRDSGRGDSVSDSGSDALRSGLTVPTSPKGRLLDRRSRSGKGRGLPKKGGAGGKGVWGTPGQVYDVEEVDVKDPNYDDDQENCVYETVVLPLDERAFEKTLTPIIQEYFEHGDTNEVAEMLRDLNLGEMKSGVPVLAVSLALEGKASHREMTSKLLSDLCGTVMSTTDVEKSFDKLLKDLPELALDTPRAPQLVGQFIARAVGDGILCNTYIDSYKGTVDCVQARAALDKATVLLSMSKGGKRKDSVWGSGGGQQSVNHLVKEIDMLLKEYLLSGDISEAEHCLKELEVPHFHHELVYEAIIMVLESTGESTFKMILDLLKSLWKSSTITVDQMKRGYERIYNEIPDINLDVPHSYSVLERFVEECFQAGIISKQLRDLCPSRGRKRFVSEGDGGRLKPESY
The assay can be described thus: Inhibition of TPA-induced degradation of Pdcd4 (amino acid 39-91) expressed in human HEK293 cells assessed as minimum compound concentration required for 50% recovery of Pdcd4-luciferase signal incubated for 8 hrs by luciferase reporter gene assay. In general terms: In a reporter assay the amount or activity of a reporter protein is the signal.

Each structure is given as a SMILES string.

Broadly, the EC50 is the concentration needed to bring the measured effect to its halfway point. With `CCCCCCCCCCCCCCC[C@H](C[C@H](O)C[C@H](O)C[C@H](O)C[C@H](O)C[C@@H]1OC(=O)C=C[C@@H]1O)OC(C)=O` [Cryptocaryol D], the EC50 came out at 1500 nM. Then `CCCCCCCCCCCCCCC[C@H](C[C@H](O)C[C@H](O)C[C@H](O)C[C@H](O)C[C@H]1CC=CC(=O)O1)OC(C)=O` [Cryptocaryol B], with 3000 nM; and `CO[C@H]1C[C@@H]2CC[C@@H](C)[C@@](O)(O2)C(=O)C(=O)N2CCCC[C@H]2C(=O)O[C@H]([C@H](C)C[C@@H]2CC[C@@H](O)[C@H](OC)C2)CC(=O)[C@H](C)/C=C(\C)[C@@H](O)[C@@H](OC)C(=O)[C@H](C)C[C@H](C)/C=C/C=C/C=C/1C` [Rapamycin C-7, analog 4], with 50 nM; and `CCCCCCCCCCCCCCC[C@@H](O)C[C@H](O)C[C@H](O)C[C@H](O)C[C@@H]1OC(=O)C=C[C@@H]1O` [Cryptocaryol E], with 1800 nM. Then `CCCCCCCCCCCCCCC[C@@H](O)C[C@H](O)C[C@H](O)C[C@H](O)C[C@H](O)C[C@H]1CC=CC(=O)O1` [Cryptocaryol A], with 4900 nM. In the case of `CCCCCCCCCCCCCCC[C@@H](O)C[C@H](O)C[C@H](O)C[C@H](O)C[C@H](O)C[C@@H]1OC(=O)C=C[C@@H]1O` [Cryptocaryol C], the EC50 was 1600 nM.
